Measured values taken from paper PMC6233306 (Bioorganic & medicinal chemistry letters, 2018).

test system: FadD32 mutant strains of Mtb (E120 and F291); format: cell-based, Mycobacterium tuberculosis

| SMILES | activity versus the E120 and F291 mutants compared to wild-type | FadD32 mutant MIC90 |
| --- | --- | --- |
| Cc1cc2nccc(-c3ccccc3)c2c(C)c1-c1ccc(CN2CCOCC2)cc1 [Compound 8] | markedly less activity | – |
| Cc1cc2nccc(-c3ccnn3C)c2c(C)c1-c1ccc(CN2CCOCC2)cc1 [Compound 15m] | markedly less activity | 100 µM |
| Cc1cc2nccc(-c3cncnc3)c2c(C)c1-c1ccc(CN2CCOCC2)cc1 [Compound 15n] | markedly less activity | 100 µM |
| CNC(=O)c1cc(-c2ccccc2Cl)c2c(C)c(-c3ccncc3)c(C)cc2n1 [Compound 21b] | markedly less activity | – |
